Data taken from patent US7863449B2, “Modulators of muscarinic receptors” (Vertex Pharmaceuticals Incorporated, priority 2004, dated 2011).

Tests used:
M1 muscarinic receptor = target: T1, M1 muscarinic receptor (Homo sapiens, UniProt P11229); assay: Functional mobilization of intracellular calcium (FLIPR), M1-CHO cells; assay type: cell-based; settings: for Emax: 100% efficacy is the maximum response obtained using Carbachol as a control; for M1 Activity: M1-CHO cells, FLIPR calcium mobilization
T1 construct: expressed in transfected cells; host or cells: CHO (M1-CHO)
T1 sequence (P11229 1-460): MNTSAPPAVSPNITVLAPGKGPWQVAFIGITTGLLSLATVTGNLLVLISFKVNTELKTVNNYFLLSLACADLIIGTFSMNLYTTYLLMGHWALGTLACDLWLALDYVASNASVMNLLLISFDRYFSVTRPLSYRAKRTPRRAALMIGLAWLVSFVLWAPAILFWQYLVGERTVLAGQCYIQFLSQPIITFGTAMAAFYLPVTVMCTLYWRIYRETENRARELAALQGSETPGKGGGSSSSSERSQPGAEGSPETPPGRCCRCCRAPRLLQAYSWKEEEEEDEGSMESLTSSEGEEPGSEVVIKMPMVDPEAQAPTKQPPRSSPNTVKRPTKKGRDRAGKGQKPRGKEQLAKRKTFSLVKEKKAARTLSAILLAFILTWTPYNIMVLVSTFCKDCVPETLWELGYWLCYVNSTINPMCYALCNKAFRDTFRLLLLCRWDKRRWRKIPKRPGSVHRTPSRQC
Outline: (§1)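 CHO cells expressing M1 or M4, loaded with Fluo-3 AM or Calcium 3 dye with 1 mM probenecid, 0.5% DMSO final. Agonist mode: compound added directly; antagonist mode: 15 min pre-incubation (or co-application) before carbachol at EC80. Fluorescence recorded 60 s on FLIPR.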

M4 muscarinic receptor = target: T2, M4 muscarinic receptor (Homo sapiens, UniProt P08173); assay: Functional mobilization of intracellular calcium (FLIPR), M4-CHO cells; assay type: cell-based; settings: for Emax: 100% efficacy is the maximum response obtained using Carbachol as a control; for M4 Activity: M4-CHO cells, FLIPR calcium mobilization
T2 construct: expressed in transfected cells; host or cells: CHO (M4-CHO)
T2 sequence (P08173 1-479): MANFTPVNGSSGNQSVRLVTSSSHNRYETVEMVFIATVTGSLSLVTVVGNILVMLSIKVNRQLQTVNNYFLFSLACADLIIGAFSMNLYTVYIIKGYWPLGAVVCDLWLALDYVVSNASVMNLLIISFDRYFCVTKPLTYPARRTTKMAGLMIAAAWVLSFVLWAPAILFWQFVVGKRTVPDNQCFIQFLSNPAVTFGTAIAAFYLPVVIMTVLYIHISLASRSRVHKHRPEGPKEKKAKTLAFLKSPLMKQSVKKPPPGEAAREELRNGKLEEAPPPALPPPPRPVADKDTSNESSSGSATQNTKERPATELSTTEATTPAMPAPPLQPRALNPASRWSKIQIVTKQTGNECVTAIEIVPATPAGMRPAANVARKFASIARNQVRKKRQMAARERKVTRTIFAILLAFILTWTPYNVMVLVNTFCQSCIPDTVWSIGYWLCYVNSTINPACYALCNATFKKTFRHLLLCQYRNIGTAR
Outline: as §1

Row | Structure (SMILES) | Emax (M1 muscarinic receptor) [%] | M1 Activity (M1 muscarinic receptor) | Emax (M4 muscarinic receptor) [%] | M4 Activity (M4 muscarinic receptor)
1 | COC(=O)N1Cc2ccccc2C2(CCN(C3CC4CCC(C3)N4C(=O)OC(C)C)CC2)C1 (stereo not drawn) [compound 206] | 25 to 100 | +++ (activity was measured to be less than 1.0 μM) | 25 to 100 | +++ (activity was measured to be less than 1.0 μM)
2 | COCCOC(=O)N1CCC(CN2CCC3(CC2)CN(C(C)=O)Cc2ccccc23)CC1 [compound 207] | 25 to 100 | + (activity was measured to be greater than 5.0 μM) | 25 to 100 | ++ (activity was measured to be from 1.0 μM to 5.0 μM)
3 | CCOC(=O)N1CCC(CN2CCC3(CC2)CN(C(=O)C2CC2)Cc2ccccc23)CC1 [compound 208] | 25 to 100 | +++ (activity was measured to be less than 1.0 μM) | 25 to 100 | +++ (activity was measured to be less than 1.0 μM)
4 | CCOC(=O)N1CCC(N2CCC3(CC2)CN(C(=O)CC(F)(F)F)Cc2ccccc23)CC1 [compound 209] | 25 to 100 | +++ (activity was measured to be less than 1.0 μM) | 25 to 100 | +++ (activity was measured to be less than 1.0 μM)
5 | Cc1cc(C(=O)N2Cc3ccccc3C3(CCN(C4CC5CCC(C4)N5C(=O)O[C@@H]4CCOC4)CC3)C2)nn1C (stereo partly drawn) [compound 210] | 25 to 100 | +++ (activity was measured to be less than 1.0 μM) | 25 to 100 | +++ (activity was measured to be less than 1.0 μM)
6 | CCOC(=O)N1CCC(N2CCC3(CC2)CN(C(=O)N2CCCCC2)Cc2ccccc23)CC1 [compound 211] | 25 to 100 | +++ (activity was measured to be less than 1.0 μM) | < 25 | + (activity was measured to be greater than 5.0 μM)
7 | O=C(OC1CCC1)N1Cc2ccccc2C2(CCN(C3CC4CCC(C3)N4C(=O)O[C@H]3CCOC3)CC2)C1 (stereo partly drawn) [compound 212] |  | +++ (activity was measured to be less than 1.0 μM) |  | +++ (activity was measured to be less than 1.0 μM)
8 | CCOC(=O)N1C2CCC1CC(N1CCC3(CC1)CN(C(=O)c1cnoc1C)Cc1ccccc13)C2 (stereo not drawn) [compound 213] | 25 to 100 | +++ (activity was measured to be less than 1.0 μM) | 25 to 100 | +++ (activity was measured to be less than 1.0 μM)
9 | CCOC(=O)N1CCC(CN2CCC3(CC2)CN(C(=O)c2ccno2)Cc2ccccc23)CC1 [compound 214] | 25 to 100 | +++ (activity was measured to be less than 1.0 μM) | 25 to 100 | +++ (activity was measured to be less than 1.0 μM)
10 | CC(=O)N1Cc2ccccc2C2(CCN(C3CCOCC3)CC2)C1 [compound 215] | 25 to 100 | ++ (activity was measured to be from 1.0 μM to 5.0 μM) | 25 to 100 | + (activity was measured to be greater than 5.0 μM)
11 | CCOC(=O)N1CC[C@@H](CN2CCC3(CC2)CN(C(C)=O)Cc2ccccc23)C1 [compound 216] | 25 to 100 | +++ (activity was measured to be less than 1.0 μM) | 25 to 100 | +++ (activity was measured to be less than 1.0 μM)
12 | CC(=O)N1Cc2ccccc2C2(CCN(Cc3cc4ccccc4o3)CC2)C1 [compound 217] | < 25 | + (activity was measured to be greater than 5.0 μM) | < 25 | + (activity was measured to be greater than 5.0 μM)
13 | CCOC(=O)N1C2CCC1CC(N1CCC3(CC1)CN(S(=O)(=O)Cc1ccccc1)Cc1ccccc13)C2 (stereo not drawn) [compound 218] | 25 to 100 | +++ (activity was measured to be less than 1.0 μM) | 25 to 100 | +++ (activity was measured to be less than 1.0 μM)
14 | CCOC(=O)N1C2CCC1CC(N1CCC3(CC1)CN(C(=O)c1cc(C)n(C)n1)Cc1ccccc13)C2 (stereo not drawn) [compound 219] | 25 to 100 | +++ (activity was measured to be less than 1.0 μM) | 25 to 100 | +++ (activity was measured to be less than 1.0 μM)
15 | CCOC(=O)N1C2CCC1CC(N1CCC3(CC1)CN(C(=O)c1snnc1C(C)C)Cc1ccccc13)C2 (stereo not drawn) [compound 220] | 25 to 100 | +++ (activity was measured to be less than 1.0 μM) | 25 to 100 | +++ (activity was measured to be less than 1.0 μM)
16 | CCOC(=O)N1CCC(N2CCC3(CC2)CN(C(=O)c2ccccc2)Cc2ccccc23)CC1 [compound 221] | 25 to 100 | +++ (activity was measured to be less than 1.0 μM) | 25 to 100 | +++ (activity was measured to be less than 1.0 μM)
17 | CS(=O)(=O)N1Cc2ccccc2C2(CCN(C3CC4CCC(C3)N4C(=O)O[C@@H]3CCOC3)CC2)C1 (stereo partly drawn) [compound 222] | 25 to 100 | +++ (activity was measured to be less than 1.0 μM) | 25 to 100 | +++ (activity was measured to be less than 1.0 μM)
18 | Cc1cc(C(=O)N2Cc3ccccc3C3(CCN(C4CC5CCC(C4)N5C(=O)OC4CCC4)CC3)C2)nn1C (stereo not drawn) [compound 223] | 25 to 100 | +++ (activity was measured to be less than 1.0 μM) | 25 to 100 | +++ (activity was measured to be less than 1.0 μM)
19 | CCOC(=O)N1C2CCC1CC(N1CCC3(CC1)CN(C(=O)C1CC1)Cc1ccccc13)C2.Cl (stereo not drawn) [compound 224, Ethyl 3-(2-(cyclopropanecarbonyl)-2,3-dihydro-1H-spiro[isoquinoline-4,4′-piperidine]-1′-yl)-8-azabicyclo-[3.2.1]octane-8-carboxylate hydrochloride] | 25 to 100 | +++ (activity was measured to be less than 1.0 μM) | 25 to 100 | +++ (activity was measured to be less than 1.0 μM)
20 | CCOC(=O)N1CCC(N2CCC3(CC2)CN(C(=O)c2cnon2)Cc2ccccc23)CC1 [compound 225] | 25 to 100 | +++ (activity was measured to be less than 1.0 μM) | 25 to 100 | +++ (activity was measured to be less than 1.0 μM)
21 | O=C1c2ccccc2C2(CCN([C@@H]3C[C@@H]4CC[C@@H]3C4)CC2)N1Cc1ccccc1 [compound 227] | < 25 | + (activity was measured to be greater than 5.0 μM) | < 25 | + (activity was measured to be greater than 5.0 μM)
22 | CCOC(=O)N1CCC(N2CCC3(CC2)CN(C(=O)CC(C)C)Cc2ccccc23)CC1 [compound 229] | 25 to 100 | +++ (activity was measured to be less than 1.0 μM) | 25 to 100 | +++ (activity was measured to be less than 1.0 μM)
23 | CCOC(=O)N1CCC(N2CCC3(CC2)OC(=O)c2cc(Cl)ccc23)CC1 [compound 230] | 25 to 100 | +++ (activity was measured to be less than 1.0 μM) | 25 to 100 | ++ (activity was measured to be from 1.0 μM to 5.0 μM)
